# Measured values taken from patent US20220409681A1, “LACTOBACILLUS SALIVARIUS LS97 AND APPLICATION THEREOF” (WECARE PROBIOTICS CO., LTD., priority 2019, published 2022).
# Assays:
# [1] = system: Streptococcus sobrinus; assay: Rat dental caries model: oral S. sobrinus count and Keyes caries score; format: in vivo, Wistar rats
# Description: (§1) SPF female Wistar rats (about 3 weeks old) were obtained and housed in a barrier environment with constant temperature and humidity, with 12 h of light and 12 h of darkness. All rats were acclimated to the environment and diet in a week before experiment, and then were randomly divided into groups according to body weight. The rats were randomly divided into 4 groups according to body weight with 10 rats in each group, among which one group was set as the blank control group (blank group), one group was set as the dental caries model group (dental caries group), and two groups were set as the intervention group. The intervention groups were wiped S. sobrinus continuously for 7 days, and after confirming that S. sobrinus was successfully colonized in the rat's oral cavity, the corresponding experimental groups were wiped chlorhexidine (chlorhexidine group) and LS97 (LS97 group) continuously for 7 days respectively, and then 3 times a week. Chlorhexidine, an ionic drug with good antibacterial effect, was used as a positive control group. The cariogenic bacteria S. sobrinus and LS97 were both cultured overnight for 12 h. After adjusted to a bacterial concentration of 1×10^8 CFU/mL, 0.2 mL of bacterial suspension was wiped onto the rat molars by sterile cotton swab, and namely, the cotton swab that absorbed bacterial suspension sufficiently worked on each quarter of the rat's oral teeth for the same 15 s. During the experiment, except for the blank control group fed normal feed and drinking water, other groups were all fed cariogenic feed Diet 2000# and drinking water added with 5% sucrose, in which the main components of cariogenic feed are shown in Table 4. The experimental period was maintained for 10 weeks.
# At the 3rd, 7th, and 10th weeks of the experiment (corresponding to the early, middle and late stages of the experiment, respectively), the first, second and third samplings were performed on the oral teeth of rats, and samples were spread on MRS solid medium added with vancomycin of 12 μg/mL for Streptococcus sobrinus count.
# After the rat experiment was finished, the rats were killed and the rat molars were taken out. The molars were placed in a 0.4% murexide dye liquor and soaked for 12 h overnight for dyeing. After the molars were rinsed by clean water and dried naturally, the caries lesion condition of rat molars in each group was observed under a stereo microscope. Caries scoring was performed on the rat teeth by using the Keyes caries scoring method. According to Keyes' classic method for evaluating dental caries, the lesion degree of dental caries is divided into four grades: E-grade caries, caries lesion involving enamel only; Ds-grade caries, enamel caries lesion and caries lesion involving the outer dentin less than ¼; Dm-grade caries, caries lesion involving the dentin thickness within ¼ to ¾; Dx-grade caries, caries lesion involving the dentin thickness more than ¾, and the result is shown in FIG. 4.
# [2] = Rat dental caries model: body weight; format: in vivo, Wistar rats
# Description: as §1
# [3] = Keyes caries scoring, FIG. 4, versus dental caries model group
smiles,measurement,setting,value
[H]/N=C(\N/C(=N/[H])NCCCCCCNC(=N)NC(=N)Nc1ccc(Cl)cc1)Nc1ccc(Cl)cc1 [Chlorhexidine],Effect on Dm caries (in words),[1]; [3],not obvious
same,Effect on E caries and Ds caries (in words),[1]; [3],effectively reduced
same,Change of the number of Streptococcus sobrinus in the oral cavity (in words),"[1]; after intervention, chlorhexidine statement refers to the third test",showed an increment circumstance
same,Count of Streptococcus sobrinus in oral sampling,"[1]; sampling number 1, 3rd week",5.53 ± 0.23 Log value
same,Count of Streptococcus sobrinus in oral sampling,"[1]; sampling number 2, 7th week",4.00 ± 0.19 Log value
same,Count of Streptococcus sobrinus in oral sampling,"[1]; sampling number 3, 10th week",4.31 ± 0.13 Log value
same,Body weight of rats after the experiment,[2]; 10 weeks,212.49 ± 23.86 g
same,Rat body weight increment,[2]; 10 weeks,147.83 ± 19.73 g
same,Body weight of rats before the experiment,[2]; baseline,60.32 ± 5.28 g
